Reference: patent publication US4476120A, “Thiolic derivatives of erythromycin having therapeutic activity, and pharmaceutical compositions containing them” (Sigma Tau Indistrie Farmaceutiche Riunites, p.A, priority 1982, dated 1984)
Values after ≈ are worked out from the molar mass of the structure shown.

How the values were obtained:
B. cereus ATCC 11778 = format: cell-based; conditions: Brain Heart Infusion, estolate and RV11-RV15 previously hydrolized, unit assumed
Staph. albus SS 03 = format: cell-based; conditions: Brain Heart Infusion, estolate and RV11-RV15 previously hydrolized, unit assumed
Br. melitensis SS 19 = format: cell-based; conditions: unit assumed
E. coli SS 05 = format: cell-based; conditions: Brain Heart Infusion, estolate and RV11-RV15 previously hydrolized, unit assumed
Pr. mirabilis SS 09 = format: cell-based; conditions: Brain Heart Infusion, estolate and RV11-RV15 previously hydrolized, unit assumed
D. pneumoniae SS 23 [1] = assay: Experimental infection induced by D. pneumoniae SS 23; format: in vivo, Swiss white mice; conditions: D. pneumoniae SS 23, mg/kg of erythromycin, survival after 7 days, 10080 min
How it was run: (§1)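 Swiss mice of 20 g infected parenterally with lethal amounts of Staph. aureus SS 07 or D. pneumoniae SS 23. Antibiotics were given at infection and again 6 and 24 h later. ED50 was derived from survival at 7 days.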

Cl. tetani SS 17 = format: cell-based; conditions: Brain Heart Infusion, estolate and RV11-RV15 previously hydrolized, unit assumed
Kl. pneumoniae SS 04 = format: cell-based; conditions: Brain Heart Infusion, estolate and RV11-RV15 previously hydrolized, unit assumed
Excerpt: (§2) In the following table I the MIC/ml values are indicated corresponding to the lowest concentration capable of inducing a complete inhibition of the bacterial development.

H. tubercolosis SS 03 = format: cell-based; conditions: Brain Heart Infusion, estolate and RV11-RV15 previously hydrolized, unit assumed
Excerpt: as §2

E. coli SS 06 = format: cell-based; conditions: Brain Heart Infusion, estolate and RV11-RV15 previously hydrolized, unit assumed
[2] = Histological examination of bronchi after SO2 inhalation; format: in vivo, Sprague Dawley male rats; conditions: i.m., 250 mg/kg
B. anthranis SS 08 = format: cell-based; conditions: Brain Heart Infusion, estolate and RV11-RV15 previously hydrolized, unit assumed
Kl. aerogenes SS 71 = format: cell-based; conditions: Brain Heart Infusion, estolate and RV11-RV15 previously hydrolized, unit assumed
Staph. aureus SS 09 = format: cell-based; conditions: Brain Heart Infusion, estolate and RV11-RV15 previously hydrolized, unit assumed
N. meningitidis SS 04 = format: cell-based; conditions: Brain Heart Infusion, estolate and RV11-RV15 previously hydrolized, unit assumed
Staph. aureus SS 07 [3] = format: cell-based; conditions: Brain Heart Infusion, estolate and RV11-RV15 previously hydrolized, unit assumed
B. anthranis SS 09 = format: cell-based; conditions: B. anthranis SS 09 (14 bis); Brain Heart Infusion; estolate and RV11-RV15 previously hydrolized; unit assumed
Staph. aureus SS 08 = format: cell-based; conditions: Brain Heart Infusion, estolate and RV11-RV15 previously hydrolized, unit assumed
B. subtilis ATCC 6633 = format: cell-based; conditions: Brain Heart Infusion, estolate and RV11-RV15 previously hydrolized, unit assumed
E. cloacae SS 07 = format: cell-based; conditions: Brain Heart Infusion, estolate and RV11-RV15 previously hydrolized, unit assumed
[4] = tested on: Strept. haemolyticus SS 18; format: cell-based; conditions: Brain Heart Infusion, estolate and RV11-RV15 previously hydrolized, unit assumed
Staph. aureus SS 07 [5] = assay: Experimental infection induced by Staph. aureus SS 07; format: in vivo, Swiss white mice; conditions: Staph. aureus SS 07, mg/kg of erythromycin, survival after 7 days, 10080 min
How it was run: as §1

Ps. aeruginosa SS 10 = format: cell-based; conditions: Brain Heart Infusion, estolate and RV11-RV15 previously hydrolized, unit assumed
B. subtilis SS 127 = format: cell-based; conditions: Brain Heart Infusion, estolate and RV11-RV15 previously hydrolized, unit assumed
H. influentiae SS 02 = format: cell-based; conditions: Brain Heart Infusion, estolate and RV11-RV15 previously hydrolized, unit assumed
E. coli SS 04 = format: cell-based; conditions: Brain Heart Infusion, estolate and RV11-RV15 previously hydrolized, unit assumed
[6] = tested on: Strept. haemolyticus SS 17; format: cell-based; conditions: Brain Heart Infusion, estolate and RV11-RV15 previously hydrolized, unit assumed
Citrobacter SS 09 = format: cell-based; conditions: Brain Heart Infusion, estolate and RV11-RV15 previously hydrolized, unit assumed
Strept. faecalis SS 19 = format: cell-based; conditions: Brain Heart Infusion, estolate and RV11-RV15 previously hydrolized, unit assumed
Staph. aureus SS 10 = format: cell-based; conditions: Brain Heart Infusion, estolate and RV11-RV15 previously hydrolized, unit assumed
Br. abortus SS 7 = format: cell-based; conditions: Brain Heart Infusion, estolate and RV11-RV15 previously hydrolized, unit assumed
Citrobacter SS 05 = format: cell-based; conditions: Brain Heart Infusion, estolate and RV11-RV15 previously hydrolized, unit assumed
D. pneumoniae SS 23 [7] = format: cell-based; conditions: Brain Heart Infusion, estolate and RV11-RV15 previously hydrolized, unit assumed
C. diphtheriae SS 19 = format: cell-based; conditions: Brain Heart Infusion, estolate and RV11-RV15 previously hydrolized, unit assumed
Sr. marcescens SS 03 = format: cell-based; conditions: Brain Heart Infusion, estolate and RV11-RV15 previously hydrolized, unit assumed
S. infantis SS 08 = format: cell-based; conditions: Brain Heart Infusion, estolate and RV11-RV15 previously hydrolized, unit assumed
S. heidelberg SS 18 = format: cell-based; conditions: Brain Heart Infusion, estolate and RV11-RV15 previously hydrolized, unit assumed
N. gonorreae SS 27 = format: cell-based; conditions: Brain Heart Infusion, estolate and RV11-RV15 previously hydrolized, unit assumed
Acute toxicity = format: in vivo; conditions: mortality 10 days after treatment, mice
Method: The acute toxicity was assessed in Swiss white mice by oral and intravenous route. The LD50 values have been calculated by the methods of Probits, starting from the mortality recorded 10 days after the treatment.

Staph. albus SS 04 = format: cell-based; conditions: Brain Heart Infusion, estolate and RV11-RV15 previously hydrolized, unit assumed
S. lutea ATCC 9341 = format: cell-based; conditions: Brain Heart Infusion, estolate and RV11-RV15 previously hydrolized, unit assumed
[8] = Mucolytic activity: obstruction of the bronchial tract after SO2 inhalation; format: in vivo, Sprague Dawley male rats; conditions: i.m., 250 mg/kg; SO2, 15 days

Structure (SMILES): CC[C@H]1OC(=O)[C@H](C)[C@@H](O[C@H]2C[C@@](C)(OC)[C@@H](O)[C@H](C)O2)[C@H](C)[C@@H](O[C@@H]2O[C@H](C)C[C@H](N(C)C)[C@H]2O)[C@](C)(O)C[C@@H](C)C(=O)[C@H](C)[C@@H](O)[C@]1(C)O [RV05, erythromycin-N-acetylcysteinate]
- MIC (B. cereus ATCC 11778): 0.4 µg/mL (≈ 0.545 µM)
- MIC (Staph. albus SS 03): 0.05 µg/mL (≈ 0.0681 µM)
- MIC (Br. melitensis SS 19): 3 µg/mL (≈ 4.09 µM)
- MIC (E. coli SS 05): 25 µg/mL (≈ 34.1 µM)
- MIC (Pr. mirabilis SS 09): > 200 µg/mL
- ED50 (reliability limits) (D. pneumoniae SS 23 [1]; os): 119.31 (150.05-94.87) mg/kg
- ED50 (reliability limits) (D. pneumoniae SS 23 [1]; s.c.): 50.22 (62.33-40.46) mg/kg
- MIC (Cl. tetani SS 17): 0.2 µg/mL (≈ 0.273 µM)
- MIC (Kl. pneumoniae SS 04): 50 µg/mL (≈ 68.1 µM)
- MIC (H. tubercolosis SS 03): 50 µg/mL (≈ 68.1 µM)
- MIC (E. coli SS 06): 100 µg/mL (≈ 136 µM)
- histological appearance of non obstructed bronchi ([2]; free non obstructed): practically normal appearance
- histological appearance of obstructed bronchial tract ([2]; obstructed): an appearance like that of the control animals
- MIC (B. anthranis SS 08): 0.4 µg/mL (≈ 0.545 µM)
- MIC (Kl. aerogenes SS 71): 50 µg/mL (≈ 68.1 µM)
- MIC (Staph. aureus SS 09): 0.1 µg/mL (≈ 0.136 µM)
- MIC (N. meningitidis SS 04): 0.8 µg/mL (≈ 1.09 µM)
- MIC (Staph. aureus SS 07 [3]): 0.025 µg/mL (≈ 0.0341 µM)
- MIC (B. anthranis SS 09): 0.4 µg/mL (≈ 0.545 µM)
- MIC (Staph. aureus SS 08): 0.025 µg/mL (≈ 0.0341 µM)
- MIC (B. subtilis ATCC 6633): 0.01 µg/mL (≈ 0.0136 µM)
- MIC (E. cloacae SS 07): > 200 µg/mL
- MIC [4]: 0.8 µg/mL (≈ 1.09 µM)
- ED50 (reliability limits) (Staph. aureus SS 07 [5]; os): 2.08 (2.38-1.83) mg/kg
- ED50 (reliability limits) (Staph. aureus SS 07 [5]; s.c.): 1.33 (1.61-1.10) mg/kg
- MIC (Ps. aeruginosa SS 10): 200 µg/mL (≈ 273 µM)
- MIC (B. subtilis SS 127): 0.01 µg/mL (≈ 0.0136 µM)
- MIC (H. influentiae SS 02): 0.8 µg/mL (≈ 1.09 µM)
- MIC (E. coli SS 04): 100 µg/mL (≈ 136 µM)
- MIC [6]: 3 µg/mL (≈ 4.09 µM)
- MIC (Citrobacter SS 09): > 200 µg/mL
- MIC (Strept. faecalis SS 19): 0.2 µg/mL (≈ 0.273 µM)
- MIC (Staph. aureus SS 10): 0.025 µg/mL (≈ 0.0341 µM)
- MIC (Br. abortus SS 7): 12 µg/mL (≈ 16.4 µM)
- MIC (Citrobacter SS 05): > 200 µg/mL
- MIC (D. pneumoniae SS 23 [7]): 0.05 µg/mL (≈ 0.0681 µM)
- MIC (C. diphtheriae SS 19): 0.05 µg/mL (≈ 0.0681 µM)
- MIC (Sr. marcescens SS 03): 200 µg/mL (≈ 273 µM)
- MIC (S. infantis SS 08): 100 µg/mL (≈ 136 µM)
- MIC (S. heidelberg SS 18): 100 µg/mL (≈ 136 µM)
- MIC (N. gonorreae SS 27): 0.8 µg/mL (≈ 1.09 µM)
- LD50 (reliability limits) (Acute toxicity; i.v., 14400 min): 472.84 (529.08-442.57) mg.kg
- LD50 (reliability limits) (Acute toxicity; os): > 3000 mg·kg
- MIC (Staph. albus SS 04): 0.025 µg/mL (≈ 0.0341 µM)
- MIC (S. lutea ATCC 9341): 0.01 µg/mL (≈ 0.0136 µM)
- Partial obstruction (% incidence) [8]: 6.66%
- Total obstruction, compact plug (% incidence) [8]: 20%
- Total obstruction, nodular mass (% incidence) [8]: 13.33%
- Total obstruction, pimply mass (% incidence) [8]: 6.66%
